Experimental data taken from patent US20220194960A1, “WEE1 INHIBITOR AND PREPARATION AND USE THEREOF” (SHOUYAO HOLDINGS (BEIJING) CO., LTD., priority 2019, published 2022).
Like-named read-outs stand apart in the source and are kept apart here.

How the values were obtained:
[1] = Animal pharmacokinetic studies in rats; type: in vivo; conditions: male rats, 5 mg/kg single intragastric administration, plasma
Procedure: 3. Animal Pharmacokinetic Studies of Compounds:
Animal pharmacokinetic experiments were conducted with 3 healthy adult male rats from Beijing Vital River Laboratory Animal Technology Co., Ltd. The compound was suspended in a 20% solution of sulfobutyl ether-β-cyclodextrin (W/W/V) at a concentration of 1 mg/mL, The rats were subjected to 5 mg/kg suspension of the compound by single intragastric administration with a dosing volume of 5 mL/kg. Animals were fasted overnight prior to the experiment from 10 h before dosing to 4 h alter dosing. Blood was collected 0.25, 0.5, 1, 2, 4, 6, 8 and 24 h after administration. Animals were lightly anesthetized with isoflurane, and approximately 0.4 ml, of whole blood was collected from the orbital venous plexus with a glass blood collection tube, placed in a heparin anticoagulant tube, centrifuged at 4200 rpm for 5 min at 4° C., plasma transferred to the centrifuge tube, and stored at −80° C. until analysis. Test compounds extracted from rat plasma using acetonitrile protein precipitation and internal standard (Warfarin or Propranolol) were used for Plasma sample analysis, and the extracts were analyzed by LC/MS/MS. The measured plasma concentration-time data for individual animals were analyzed using non-compartmental model of WinNonlin (version 5.2.1; Pharsight) software to obtain the following pharmacokinetic parameters: maximum (peak) plasma drug concentration Cmax; a peak time Tmax; half-life T1/2 and the area under the plasma concentration-time curve front time 0 extrapolated to infinite time AUC0-inf.

[2] = target: T1, WEE1 kinase (Homo sapiens, UniProt P30291); experiment: WEE1 kinase binding assay (LanthaScreen EU); conditions: WEE1 kinase 20 nM, Kinase Tracer 178 100 nM, 23° C. for 60 min, read-out: WEEI (IC50)
T1 construct: purchased Carna bioscience
Procedure: 1. Assay for WEE1 Kinase Inhibitory Activity (IC50) on Compounds
The WEE1 kinase binding assay was established and optimized with LanthaScreen EU for the determination of the activity of compounds. 10 mM compounds were subjected to ten-fold gradient dilution in 100% DMSO (6 concentrations in total), 5 μL of diluent from each concentration was added to 45 μL of reaction buffer (50 mM HEPES (4-hydroxyethylpiperazine ethanesulfonic acid), pH 7.5, 10 mM MgCl2 (magnesium chloride), 1 mM EGTA (ethylene glycol diethyl ether diamine tetraacetic acid), 0.01% Brij-35 (polyoxyethylene lauryl ether)) for blending. On this basis, 2 μL diluent from each concentration was added to 48 μL of reaction buffer for blending as a 4*compound (final concentrations of 1000, 100, 10, 1, 0.1, 0 nM) for later use. Reaction buffer was used to formulate 4*WEE1 kinase (purchased from Carna bioscience, a final concentration of 20 nM), 4*LanthaScreen EU-anti-GST Antibody (purchased from Invitrogen, PV5594, a fuel concentration of 2 nM), and 4*Kinase Tracer 178 (purchased from Invitrogen, PV5593, a final concentration of 100 nM). 2.5 μL of 4*compound was added to a 384-well plate (OptiPlate-384, purchased from PerkinElmer), followed by adding 2.5 μL of 4*WEE1 kinase, standing for 5 min at room temperature. Then 2.5 μL of 4*LanthaScreen EU-anti-GST Antibody was added followed by 2.5 μL of 4*Kinase Tracer 178. The reaction was started by centrifugation (a total reaction volume of 10 μL). The 384-well plate was wrapped with tin foil paper and placed in an incubator at 23° C. for 60 min. Fluorescence values (excitation at 320 nm, detecting emitted light at 665 nm and 615 nm, and a ratio of the two as enzyme activity) were read on Envision (purchased from PerkinElmer). The enzyme activity of each compound was measured at 6 concentrations, and the IC50 value of the compound was calculated using GraFit6.0 software (Erithacus Software).
The aforementioned “*” refers to multiplying, representing multiples.

[3] = system: Human non-small cell lung cancer cells NCI-H1299; experiment: NCI-H1299 cell proliferation inhibition (CellTiter-Glo); type: cell-based; conditions: cultured 3 days, table head NCI-H1975, method NCI-H1299
Procedure: 2. Determination of Cell Proliferation Activity of Compounds:
NCI-H1299 cell proliferation inhibition screening method was established using CellTiter-fib detection reagent from Promega.
Human non-small cell lung cancer cells NCI-H1299 were cultured in 25 cm^2 or 75 cm^2 plastic tissue culture flasks (Corning) filled with DMEM (Gibco) medium supplemented with 10% fetal bovine serum (Hyclone) under 37° C., 95% air, and 5% CO2, and subcultured 2-3 times a week.
Cells were seeded at 1000 cells/well in a 96-well cell culture plate (Corning), 195 μL/well, and cultured under 37° C., 95% air, and 5% CO2. The next day test compound was added: 10 mM compounds (dissolved in DMSO) were subjected to 3-fold gradient dilution in DMSO, 2 μL of diluent from each concentration was added to 48 μL of serum-fret medium, and finally 5 μL of the diluted compound was added to the plate seeded with cells. The final concentration of DMSO in the cell culture was 0.1% and the foul concentration of the test compound was 0.3 nM-10 μM. The cells were cultured at 37° C. for 3 days.

T1 sequence (P30291 whole entry): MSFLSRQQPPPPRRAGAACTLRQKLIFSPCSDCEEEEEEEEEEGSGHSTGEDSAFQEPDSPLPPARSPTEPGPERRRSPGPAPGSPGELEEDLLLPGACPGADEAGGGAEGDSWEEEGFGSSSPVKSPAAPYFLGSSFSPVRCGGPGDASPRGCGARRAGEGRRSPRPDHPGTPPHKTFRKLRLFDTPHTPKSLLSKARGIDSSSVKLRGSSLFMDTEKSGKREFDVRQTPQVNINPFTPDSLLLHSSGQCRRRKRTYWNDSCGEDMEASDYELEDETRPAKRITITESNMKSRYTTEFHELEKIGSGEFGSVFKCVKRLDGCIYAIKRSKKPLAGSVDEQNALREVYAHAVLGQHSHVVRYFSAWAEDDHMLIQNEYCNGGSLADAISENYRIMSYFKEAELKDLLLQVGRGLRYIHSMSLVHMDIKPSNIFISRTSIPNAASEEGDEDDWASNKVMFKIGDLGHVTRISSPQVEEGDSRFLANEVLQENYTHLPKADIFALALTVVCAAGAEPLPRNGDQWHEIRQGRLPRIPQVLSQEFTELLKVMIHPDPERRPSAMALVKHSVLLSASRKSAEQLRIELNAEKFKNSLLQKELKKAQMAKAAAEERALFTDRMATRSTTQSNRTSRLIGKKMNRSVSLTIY

Row | Structure (SMILES) | half-life ([1]; rat, po) | AUC(0-inf) ([1]; rat, po, read-out: AUC0-inf) | Cmax ([1]; rat, po, read-out: Cmax) | Tmax ([1]; rat, po, read-out: Tmax) | IC50 [2] | further results
1 | CN1CCN(C2CCN(c3ccc(Nc4ncc5cc(C6CC6)n(-c6cccc(C(C)(C)O)n6)c5n4)cc3F)CC2)CC1 [Example 77, 2-(6-(2-((3-fluoro-4 (4-(4-methylpiperazin-1-yl)piperidin-1-yl)phenyl)amino)-6-cyclopropyl-7H-pyrrolo[2,3-d]pyrimidin-7-yl)pyridin-2-yl)propan-2-ol] | 13.6 h | 2340 ng·h/mL | 98 ng/mL | 5.33 h |  | 
2 | CN1CCN(C2CCN(c3ccc(Nc4ncc5c(F)c(C6CC6)n(-c6cccc(C(C)(C)O)n6)c5n4)cc3)CC2)CC1 [Example 58, 2-(6-(2-((4-(4-(4-methylpiperazin-1-yl)piperidin-1-yl)phenyl)amino)-5-fluoro-6-cyclopropyl-7H-pyrrolo[2,3-d]pyrimidin-7-yl)pyridin-2-yl)propan-2-ol] |  |  |  |  |  | AUC(0-inf) [1]: 1751 ng·h/mL; Cmax [1]: 83 ng/mL; T1/2 [1]: 10.9 h; Tmax [1]: 6.0 h
3 | CN1CCN(c2ccc(Nc3ncc4c(F)c(C5CC5)n(-c5cccc(C(C)(C)O)n5)c4n3)cc2)CC1 [Example 57, 2-(6-(2-((4-(4-methylpiperazin-1-yl)phenyl)amino)-5-fluoro-6-cyclopropyl-7H-pyrrolo[2,3-d]pyrimidin-7-yl)pyridin-2-yl)propan-2-ol] | 11.2 h | 1080 ng·h/mL | 68 ng/mL | 2.3 h |  | 
4 | CCCc1cc2cnc(Nc3ccc(N4CCC5(CCN(C)CC5)CC4)cc3)nc2n1-c1cccc(C(C)(C)O)n1 [Example 124, 2-(6-(6-propyl-2-((4-(9-methyl-3,9-diazaspiro[5.5]undecan-3-yl)phenyl)amino)-7H-pyrrolo[2,3-d]pyrimidin-7-yl)pyridin-2-yl)propan-2-ol] |  |  |  |  | 1.03 nM | AUC(0-inf) [1]: 4066 ng·h/mL; Cmax [1]: 163 ng/mL; T1/2 [1]: 19.2 h; Tmax [1]: 4.8 h
5 | CCCc1cc2cnc(Nc3ccc(N4CCN(C)CC4)cn3)nc2n1-c1cccc(N=S(C)(C)=O)n1 [Example 110, ((6-(6-propyl-2-((5-(4-methylpiperazin-1-yl)pyridin-2-yl)amino)-7H-pyrrolo[2,3-d]pyrimidin-7-yl)pyridin-2-yl)imino)dimethyl-λ^6-sulfanone] |  |  |  |  | 0.69 nM | IC50 [3]: 88 nM
6 | CN1[C@@H]2CC[C@H]1CN(c1ccc(Nc3ncc4cc(C5CC5)n(-c5cccc(N=S(C)(C)=O)n5)c4n3)cc1)C2 [Example 81, ((6-(6-cyclopropyl-2-((4-((1R,5S)-8-methyl-3,8-diazabicyclo[3.2.1]octan-3-yl)phenyl)amino)-7H-pyrrolo[2,3-d]pyrimidin-7-yl)pyridin-2-yl)imino)dimethyl-λ^6-sulfanone] |  |  |  |  | 0.33 nM | IC50 ([3]; Homo sapiens, 72 h): 38 nM

Now from value to molecule, other results behind:

Row | half-life ([1]; rat, po) | AUC(0-inf) ([1]; rat, po, read-out: AUC0-inf) | Cmax ([1]; rat, po, read-out: Cmax) | Tmax ([1]; rat, po, read-out: Tmax) | IC50 [2] | Structure (SMILES) | further results
7 | 9.2 h | 1100 ng·h/mL | 64 ng/mL | 5.4 h |  | Cc1cc2cnc(Nc3ccc(N4CCC(N5CCN(C)CC5)CC4)cc3)nc2n1-c1cccc(C(C)(C)O)n1 [Example 148, 2-(6-(6-methyl-2-((4-(4-(4-methylpiperazin-1-yl)piperidin-1-yl)phenyl)amino)-7H-pyrrolo[2,3-d]pyrimidin-7-yl)pyridin-2-yl)propan-2-ol] | 
8 | 7.6 h | 1420 ng·h/mL | 116 ng/mL | 4 h |  | CN1CCN(C2CCN(c3ccc(Nc4ncc5cc(C6CC6)n(-c6cccc(C(C)(C)O)n6)c5n4)cc3)CC2)CC1 [Example 56, 2-(6-(2-((4-(4-(4-methylpiperazin-1-yl)piperidin-1-yl)phenyl)amino)-6-cyclopropyl-7H-pyrrolo[2,3-d]pyrimidin-7-yl)pyridin-2-yl)propan-2-ol] | 
